Experiments:
[1] = twelve weeks at 40° C. and 75% relative humidity
[2] = at about pH 8; cited from earlier work
[3] = 3 tons pressure 1 min; strong grinding dry or with a drop of water, ethanol or isopropanol; 100° C. for 30 minutes; 1 week 100% relative humidity at room temperature
Description: The analysis of was performed on ARL (SCINTAG) powder X-Ray diffractometer model X'TRA equipped with a solid stage detector.
Scanning parameters: range: 2-40 degrees two-theta; scan mode: continuous scan; step size: 0.05°, and a rate of 3 deg/min.

[4] = wettability by contact angle measurement; type: physicochemical; conditions: water drops (2 μL) on pellet pressed at 2 t*cm^−2
Description: The wettability of the below compounds was determined by contact angle measurement. For this purpose, the substances were pressed (2 t*cm^−2) to a pellet. On each pellet were placed three water drops (2 μL) on three individual measurement points and the contact angle was measured with the apparatus OCA40 (DataPhysics Instruments) on two sides of the drop.

C=CC(=O)N1CCC[C@@H](n2nc(-c3ccc(Oc4ccccc4)cc3)c3c(N)ncnc32)C1 [Ibrutinib Form E, 1-[(3R)-3[4-Amino-3-(4-phenoxyphenyl)-1H-pyrazolo[3,4-d]pyrimidin-1-yl]piperidin-1-yl]prop-2-en-lone]
solid form after storage (XRPD, FIG. 15) [1]: transformed into ibrutinib Form A

C=CC(=O)N1CCC[C@@H](n2nc(-c3ccc(Oc4ccccc4)cc3)c3c(N)ncnc32)C1 [Ibrutinib free base form A, 1-[(3R)-3[4-Amino-3-(4-phenoxyphenyl)-1H-pyrazolo[3,4-d]pyrimidin-1-yl]piperidin-1-yl]prop-2-en-lone]
observed aqueous solubility [2]: about 0.013 mg/ml

C=CC(=O)N1CCCC(n2nc(-c3ccc(Oc4ccccc4)cc3)c3c(N)ncnc32)C1.C=CC(=O)N1CCCC(n2nc(-c3ccc(Oc4ccccc4)cc3)c3c(N)ncnc32)C1.O=C(O)C=CC(=O)O (stereo not shown) [ibrutinib:fumaric acid]
XRPD pattern after stress-tests [3]: No change was observed in the XRPD pattern

C=CC(=O)N1CCC[C@@H](n2nc(-c3ccc(Oc4ccccc4)cc3)c3c(N)ncnc32)C1.C=CC(=O)N1CCC[C@@H](n2nc(-c3ccc(Oc4ccccc4)cc3)c3c(N)ncnc32)C1.O=C(O)CCC(=O)O [ibrutinib:succinic acid]
contact angle θ [4]: incapable of measurement*

— patent US10669275B2 (priority 2015, dated 2020)
